Laboratory results as given in US12018011B2, “Macrocyclic compounds and compositions, and methods of preparing and using the same” (Kura Oncology, Inc., priority 2021, dated 2024).

Legend:
[1] = target: T1, Recombinant human farnesyl transferase (FTase) (Homo sapiens, UniProt P49356); test: FTase fluorescence assay (farnesylation of dansyl-GCVLS peptide); format: biochemical; conditions: recombinant human FTase 2.5 nM, Dansyl-GCVLS 85 nM, FPP 30 nM, 30° C., 50 minutes
T1 construct: purchased Crelux (Martinsried, Germany)

[2] = target: T2, geranylgeranyl transferase type-1 (GGTase) (Homo sapiens, UniProt P53609); test: GGTase fluorescence assay (dansyl-GCVLL peptide, GGPP); format: biochemical; conditions: GGTase 25 nM, Dansyl-GCVLL 10 μM, GGPP 10 μM, 30° C., 120 minutes
T2 construct: purchased Crelux (Martinsried, Germany)
From the text: (§1) T24/83 cell line was purchased from the European Collection of Authenticated Cell Cultures (Salisbury, UK). Recombinant human farnesyl transferase (FTase) and geranylgeranyl transferase type-1 (GGTase) were obtained from Crelux (Martinsried, Germany). Dansyl labelled GCVLS peptide was purchased from Bachem (Torrance, CA), and Dansyl labelled GCVLL peptide was purchased from Bio Synthesis (Lewisville, TX). Farnesyl Pyrophosphate (FPP) and Geranylgeranyl pyrophosphate (GGPP) were purchased from Cayman (Ann Arbor, MI).
Geranylgeranyl transferase (GGTase) is a closely related enzyme to farnesyl transferase (FTase). The two enzymes share a common regulatory chain but have distinct individual enzymatic domains. GGTase catalyses the addition of an alternative prenylated side chain to some of the same proteins that may also be farnesylated. Thus, selective inhibitory activity against FTase relative to GGTase is a critical characteristic for FTase inhibitors.
The IC50 value of the compounds disclosed herein as inhibitors of Ftase and/or GGTase, was determined by measuring the concentration (provided in nM) necessary to achieve inhibition of enzyme activity by 50% (IC50). […] Compounds having a low IC50 value against FTase, for example an IC50 (FTase)<100 nM, such as an IC50 (FTase)<10 nM, are preferred. Compounds having a low IC50 value against FTase and a high IC50 value against GGTase, for example an IC50 (FTase)<100 nM, such as an IC50 (FTase)<10 nM, and an IC50 (GGTase)>100 nM, are potent and selective inhibitors of FTase, and are particularly preferred.
The inhibition activities of the compounds disclosed herein against Ftase and GGTase were measured in the respective fluorescence assays as follows:
For the GGTase assay, GGTase (25 nM), Dansyl labelled GCVLL peptide (10 μM), GGPP (10 μM) and inhibitor were mixed in assay buffer (50 mM Tris, pH 7.5, 10 mM magnesium chloride, 10 μM zinc chloride, 0.08% CHAPS, 5 mM dithiothreitol) and incubated in a total volume of 20 μL at 30° C. for 120 minutes.
For both the FTase assay and GGTase assay, fluorescence intensity was detected (excitation at 340 nm and emission at 486 nm) using EnVision (PerkinElmer; Waltham, MA), IC50 determinations were performed using a sigmoidal dose-response model with Xlfit software (IDBS, Inc.; Boston, MA), and tipifarnib was used as a positive control. All the assay plates for each assay passed the QC criteria (S/B, Z factor).

[3] = system: T24/83 cells; test: T24/83 cell proliferation assay (CellTiter-Glo); format: cell-based; conditions: Homo sapiens, 96 h, 4 days
From the text: as §1
Mutant oncogenic HRAS was originally identified in a human bladder carcinoma cell line called T24. T24/83 is a subline of T24 established more recently that has more favorable growth characteristics for in vitro assays. Thus, T24/83 is a well-characterized mutant HRAS-dependent cell line that is an ideal model for quantifying the HRAS-dependent antitumor activity of farnesyltransferase inhibitors.
T24/83 cells were inoculated into 384 well plates at 100 cells/well, and grown in the presence of inhibitor, 0.7% DMSO as a negative control, or 100 μM tipifarnib as a positive control, at 37° C. for 4 days. Cell viability was assessed using the CellTiter-Glo Kit (CTG) (Promega; Madison, WI). Luminescence was recorded using EnVision microplate reader (PerkinElmer; Waltham, MA). In this assay, tipifarmib was used as a positive control. All the assay plates passed the QC criteria (S/B, Z-factor).

[4] = Metabolic stability in mouse liver microsomes; format: in vitro ADME; conditions: CD-1 mouse liver microsomes 0.5 mg protein/mL, test compound 1 μM, 37° C.; read-out: T1/2 in MLM
Procedure: (§2) The metabolic stability of the compounds disclosed herein was determined by measuring half-life (T1/2) of the compounds in the presence of mouse liver microsomes (MLM) or human liver microsomes (BILM).
(§3) Intermediate solution: 5 μL of compound and control stock solution (10 mM in dimethyl sulfoxide (DMSO)) were diluted with 495 μL of acetonitrile (ACN) (intermediate solution concentration: 100 μM, 99% ACN).
(§4) Working solution: 50 μL of compound and control intermediate solution (100 μM) were diluted with 450 μL of 100 mM potassium phosphate buffer (working solution concentration: 10 μM, 9.9% ACN).
(§5) Controls used in this assay: Testosterone, Diclofenac, and Propafenone.
(§6) Preparation Procedure: The appropriate amount of NADPH powder was weighed and diluted into a 10 mM MgCl2 solution (working solution concentration: 10 unit/mL; final concentration in reaction system: 1 unit/mL).
(§7) The appropriate concentrations of microsome working solutions were prepared in 100 mM potassium phosphate buffer.
(§8) Cold (4° C.) acetonitrile (CAN) containing 200 ng/mL tolbutamide and 200 ng/mL labetalol as internal standards (IS) was used as the stop solution.
(§9) Using an Apricot automation workstation, 10 μL/well of compound working solution were added to all 96-well reaction plates except the blank (T0, T5, T10, T20, T30, T60, and NCF60).
(§10) An Apricot automation workstation was used to add 80 μL/well of microsome solution to all reaction plates (Blank, T0, T5, T10, T20, T30, T60, and NCF60).
(§11) All reaction plates containing mixtures of compound and microsomes were pre-incubated at 37° C. for 10 minutes.
(§12) An Apricot automation workstation was used to add 10 μL/well of 100 mM potassium phosphate buffer to reaction plate NCF60.
(§13) Reaction plate NCF60 was incubated at 37° C. for 60 minutes.
(§14) After pre-incubation, an Apricot automation workstation was used to add 10 μL/well of NADPH regenerating system to every reaction plate except NCF60 (Blank, T0, T5, T10, T20, T30, and T60) to start the reaction. Final concentration of each component in incubation medium: Microsome (0.5 mg protein/mL); Test Compound (1 μM); Control Compound (1 μM); Acetonitrile (0.99%); DMSO (0.01%).
(§15) The reaction plates were incubated at 37° C. for 0 minute (T0, stop solution was added prior to microsome and NADPH solutions), 5 minutes (T5), 10 minutes (T10), 20 minutes (T20), 30 minutes (T30), 60 minutes (T60).
(§16) An Apricot automation workstation was used to add 300 μL/well of stop solution to each reaction plate at its appropriate end time point to terminate the reaction.
(§17) Each plate was sealed and shaken for 10 minutes.
(§18) After shaking, each plate was centrifuged at 4000 rpm and 4° C. for 20 minutes.
(§19) During centrifugation, an Apricot automation workstation was used to add 300 µL/well of HPLC grade water to eight new 96-well plates.
(§20) After centrifugation, an Apricot automation workstation was used to transfer 100 μL of supernatant from each reaction plate to its corresponding bioanaylsis plate.
(§21) Each bioanalysis plate was sealed and shaken for 10 minutes prior to LC-MS/MS analysis.
(§22) The equation of first order kinetics was used to calculate T1/2 and CLint(mic) (μL/min/mg).

[5] = Metabolic stability in human liver microsomes; format: in vitro ADME; conditions: human liver microsomes 0.5 mg protein/mL, test compound 1 μM, 37° C.; read-out: T1/2 in HLM
Procedure: as §2, §3, §4, §5, §6, §7, §8, §9, §10, §11, §12, §13, §14, §15, §16, §17, §18, §19, §20, §21, §22

IC50 [1] [nM]	IC50 [2] [nM]	IC50 [3] [nM]	half-life at 1 μM [4] [min]	half-life at 1 μM [5] [min]	SMILES
≤ 10	100 to 1000	≤ 50	–	–	Cn1cncc1[C@@]1(N)c2ccc(C#N)c(c2)CCc2cccc(c2)-c2cc(C#N)nc3ccc1cc23 [(R)-9, (R)-3-amino-3-(1-methyl-1H-imidazol-5-yl)-2(4,6)-quinolina-1,4(1,3)-dibenzenacyclohexaphane-2^2 4^4-dicarbonitrile]
≤ 10	100 to 1000	≤ 50	–	–	Cn1cncc1[C@@]1(N)c2ccc(C#N)c(c2)OCc2cccc(c2)-c2cc(C#N)nc3ccc1cc23 [(S)-21, (S)-3-amino-3-(1-methyl-1H-imidazol-5-yl)-5-oxa-2(4,6)-quinolina-1,4(1,3)-dibenzenacyclohexaphane-2^2 4^4-dicarbonitrile]
≤ 10	–	50 to 500	< 5	< 30	Cn1cncc1[C@@]1(O)c2ccc(Cl)c(c2)OCCc2cccc(c2)-c2cc(=O)n(C3CC3)c3ccc1cc23 [(S)-29, (S)-4^4-chloro-2^1-cyclopropyl-3-hydroxy-3-(1-methyl-1H-imidazol-5-yl)-2^1,2^2-dihydro-5-oxa-2(4,6)-quinolina-1,4(1,3)-dibenzenacycloheptaphan-2^2-one]
≤ 10	–	50 to 500	< 5	< 30	Cn1cncc1[C@@]1(N)c2ccc(Cl)c(c2)OCCc2cccc(c2)-c2cc(=O)n(C3CC3)c3ccc1cc23 [(S)-30, (S)-3-amino-4^4-chloro-2^1-cyclopropyl-3-(1-methyl-1H-imidazol-5-yl)-2^1,2^2-dihydro-5-oxa-2(4,6)-quinolina-1,4(1,3)-dibenzenacycloheptaphan-2^2-one]
≤ 10	–	50 to 500	< 5	< 30	Cn1cnnc1[C@@]1(N)c2ccc(Cl)c(c2)OCCc2cccc(c2)-c2cc(=O)n(C3CC3)c3ccc1cc23 [(S)-35, (S)-3-amino-4^4-chloro-2^1-cyclopropyl-3-(4-methyl-4H-1,2,4-triazol-3-yl)-2^1,2^2-dihydro-5-oxa-2(4,6)-quinolina-1,4(1,3)-dibenzenacycloheptaphan-2^2-one]
≤ 10	–	≤ 50	5 to 15	< 30	Cn1cncc1[C@@]1(O)c2ccc(C#N)c(c2)OCCc2cccc(c2)-c2cc(=O)n(C)c3ccc1cc23 [(S)-36, (S)-3-hydroxy-2^1-methyl-3-(1-methyl-1H-imidazol-5-yl)-2^2-oxo-2^1,2^2-dihydro-5-oxa-2(4,6)-quinolina-1,4(1,3)-dibenzenacycloheptaphane-4^4-carbonitrile]
≤ 10	–	≤ 50	> 15	> 100	Cn1cnnc1[C@@]1(N)c2ccc(C#N)c(c2)OCCc2cccc(c2)-c2cc(=O)n(C)c3ccc1cc23 [(S)-39, (S)-3-amino-2^1-methyl-3-(4-methyl-4H-1,2,4-triazol-3-yl)-2^2-oxo-2^1,2^2-dihydro-5-oxa-2(4,6)-quinolina-1,4(1,3)-dibenzenacycloheptaphane-4^4-carbonitrile]
≤ 10	> 1000	≤ 50	–	–	Cn1cncc1[C@@]1(N)c2ccc(Cl)c(c2)COc2cccc(c2)-c2cc(C#N)nc3ccc1cc23 [(S)-48, (S)-3-amino-4^4-chloro-3-(1-methyl-1H-imidazol-5-yl)-6-oxa-2(4,6)-quinolina-1,4(1,3)-dibenzenacyclohexaphane-2^2-carbonitrile]
≤ 10	> 1000	≤ 50	–	–	[2H]C([2H])([2H])n1c(=O)cc2c3cc(ccc31)[C@@](O)(c1cncn1C)c1ccc(C#N)c(c1)COc1cccc-2c1 [(S)-55, (S)-3-hydroxy-2^1-(methyl-d3)-3-(1-methyl-1H-imidazol-5-yl)-2^2-oxo-2^1,2^2-dihydro-6-oxa-2(4,6)-quinolina-1,4(1,3)-dibenzenacyclohexaphane-4^4-carbonitrile]
≤ 10	> 1000	≤ 50	–	–	Cn1cncc1[C@@]1(N)c2ccc(C#N)c(c2)COc2cccc(c2)-c2cc(=O)n(C3CC3)c3ccc1cc23 [(S)-57, (S)-3-amino-2^1-cyclopropyl-3-(1-methyl-1H-imidazol-5-yl)-2^2-oxo-2^1,2^2-dihydro-6-oxa-2(4,6)-quinolina-1,4(1,3)-dibenzenacyclohexaphane-4^4-carbonitrile]
≤ 10	–	≤ 50	> 15	> 100	Cn1cncc1C1(O)c2ccc(Cl)c(c2)COc2cccc(c2)-c2cc(=O)n(C)c3ccc1cc23 (stereo not shown) [Compound 45, 4^4-chloro-3-hydroxy-2^1-methyl-3-(1-methyl-1H-imidazol-5-yl)-2^1,2^2-dihydro-6-oxa-2(4,6)-quinolina-1,4(1,3)-dibenzenacyclohexaphan-2^2-one]
≤ 10	–	50 to 500	5 to 15	< 30	Cn1cncc1C1(O)c2ccc(Cl)c(c2)CCOc2cccc(c2)-c2cc(=O)n(C)c3ccc1cc23 (stereo not shown) [Compound 65, 4^4-chloro-3-hydroxy-2^1-methyl-3-(1-methyl-1H-imidazol-5-yl)-2^1,2^2-dihydro-7-oxa-2(4,6)-quinolina-1,4(1,3)-dibenzenacycloheptaphan-2^2-one]
